Starred links: 1 amine or outer side, 2 acyl side, 3 side chain; linkers in the order of their positions; H or OH if unused. Non-standard residues stand in square brackets, D forms with d. Residues, ends and D or L forms follow the SMILES beside them. *: point of attachment. X9 = CCC(=O)c1cccc(N([C@@H](Cc2ccc(F)cc2)C(=O)[*:2])[*:1])c1; X3 = CC(=O)N(C(=O)/C=C/c1ccccc1)[C@@H](Cc1ccc(F)cc1)C(=O)*; Phe(4-guanidino) = N=C(N)Nc1ccc(C[C@H](N)C(=O)O)cc1; Phe(4-F) = N[C@@H](Cc1ccc(F)cc1)C(=O)O; Benzoyl(4-Cl) = O=C(c1ccc(Cl)cc1)*; X10 = O=C(c1c[nH]c2ccccc12)*; X5 = O=C(c1cc2ccccc2[nH]1)*; Orn = NCCC[C@H](N)C(=O)O; X2 = O=S(=O)(c1cccs1)*
Molecular target: T1, Proteinase-activated receptor 1 (Homo sapiens, UniProt P25116)
T1 sequence (P25116 whole entry): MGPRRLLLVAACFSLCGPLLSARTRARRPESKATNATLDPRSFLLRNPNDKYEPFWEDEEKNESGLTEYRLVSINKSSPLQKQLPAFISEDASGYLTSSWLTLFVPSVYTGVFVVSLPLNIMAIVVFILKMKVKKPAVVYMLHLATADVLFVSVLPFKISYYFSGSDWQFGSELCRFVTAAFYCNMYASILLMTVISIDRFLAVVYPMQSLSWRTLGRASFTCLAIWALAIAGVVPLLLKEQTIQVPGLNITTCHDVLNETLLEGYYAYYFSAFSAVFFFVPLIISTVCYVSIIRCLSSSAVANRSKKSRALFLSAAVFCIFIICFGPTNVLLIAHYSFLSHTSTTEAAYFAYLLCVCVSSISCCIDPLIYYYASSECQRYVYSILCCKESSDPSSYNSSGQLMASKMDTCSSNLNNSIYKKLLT

Row | IC50 | SMILES
1 | 160 nM | CC(=O)N(c1cccc(F)c1)[C@@H](Cc1ccc(F)cc1)C(=O)N[C@@H](Cc1ccc(NC(=N)N)cc1)C(=O)N[C@@H](CC(C)C)C(=O)N[C@@H](CCCN=C(N)N)C(N)=O
2 | 6.6 nM | CC(=O)N(C(=O)/C=C/c1ccccc1)[C@@H](Cc1ccc(F)cc1)C(=O)N[C@@H](Cc1ccc(NC(=N)N)cc1)C(=O)N[C@@H](CC(C)C)C(=O)N[C@@H](CCCN=C(N)N)C(=O)N[C@@H](CCCN)C(N)=O (X3-[Phe(4-guanidino)]LR[Orn]-NH2)
3 | 3440 nM | CC(=O)N(C(=O)/C=C/c1ccccc1)[C@@H](Cc1cccnc1)C(=O)N[C@@H](Cc1ccc(NC(=N)N)cc1)C(=O)N[C@@H](CC(C)C)C(=O)N[C@@H](CCCN=C(N)N)C(N)=O
4 | 42 nM | CCC(=O)c1cccc(N(C(C)=O)[C@@H](Cc2ccc(F)cc2)C(=O)N[C@@H](Cc2ccc(NC(=N)N)cc2)C(=O)N[C@@H](CC(C)C)C(=O)N[C@@H](CCCN=C(N)N)C(N)=O)c1
5 | 950 nM | CC(=O)N(c1cccnc1)[C@@H](Cc1ccc(F)cc1)C(=O)N[C@@H](Cc1ccc(NC(=N)N)cc1)C(=O)N[C@@H](CC(C)C)C(=O)N[C@@H](CCCN=C(N)N)C(N)=O
6 | 20 nM | CC(=O)N(C(=O)/C=C/c1ccc(F)cc1)[C@@H](Cc1ccc(F)cc1)C(=O)N[C@@H](Cc1ccc(NC(=N)N)cc1)C(=O)N[C@@H](CC(C)C)C(=O)N[C@@H](CCCN=C(N)N)C(N)=O (stereo in doubt; 43)
7 | 295 nM | CC(=O)N(C(=O)Cc1ccc2ccccc2c1)[C@@H](Cc1ccc(F)cc1)C(=O)N[C@@H](Cc1ccc(NC(=N)N)cc1)C(=O)N[C@@H](CC(C)C)C(=O)N[C@@H](CCCN=C(N)N)C(N)=O
8 | 1530 nM | CC(=O)N(C(=O)/C=C/c1ccc(-c2ccccc2)cc1)[C@@H](Cc1ccc(F)cc1)C(=O)N[C@@H](Cc1ccc(NC(=N)N)cc1)C(=O)N[C@@H](CC(C)C)C(=O)N[C@@H](CCCN=C(N)N)C(N)=O
9 | 41 nM | CC(=O)N(C(=O)/C=C/c1cccc(Cl)c1)[C@@H](Cc1ccc(F)cc1)C(=O)N[C@@H](Cc1ccc(NC(=N)N)cc1)C(=O)N[C@@H](CC(C)C)C(=O)N[C@@H](CCCN=C(N)N)C(N)=O
10 | 2320 nM | CC(=O)N(C(=O)c1cccc(C2CCCCC2)c1)[C@@H](Cc1ccc(F)cc1)C(=O)N[C@@H](Cc1ccc(NC(=N)N)cc1)C(=O)N[C@@H](CC(C)C)C(=O)N[C@@H](CCCN=C(N)N)C(N)=O
11 | 17 nM | CC(=O)N(C(=O)/C=C/c1ccccc1)[C@@H](Cc1ccc(F)cc1)C(=O)N[C@@H](Cc1ccc(NC(=N)N)cc1)C(=O)N[C@@H](CC(C)C)C(=O)N[C@@H](CCCN)C(N)=O
12 | 1630 nM | CC(=O)N(C(=O)Cc1cccc2ccccc12)[C@@H](Cc1ccc(F)cc1)C(=O)N[C@@H](Cc1ccc(NC(=N)N)cc1)C(=O)N[C@@H](CC(C)C)C(=O)N[C@@H](CCCN=C(N)N)C(N)=O
13 | 560 nM | CC(=O)N(c1ccccc1F)[C@@H](Cc1ccc(F)cc1)C(=O)N[C@@H](Cc1ccc(NC(=N)N)cc1)C(=O)N[C@@H](CC(C)C)C(=O)N[C@@H](CCCN=C(N)N)C(N)=O
14 | 23 nM | CC#Cc1ccccc1C(=O)N(C(C)=O)[C@@H](Cc1ccc(F)cc1)C(=O)N[C@@H](Cc1ccc(NC(=N)N)cc1)C(=O)N[C@@H](CC(C)C)C(=O)N[C@@H](CCCN=C(N)N)C(N)=O
15 | 23 nM | C=CC(=O)c1ccsc1N(C(C)=O)[C@@H](Cc1ccc(F)cc1)C(=O)N[C@@H](Cc1ccc(NC(=N)N)cc1)C(=O)N[C@@H](CC(C)C)C(=O)N[C@@H](CCCN=C(N)N)C(N)=O
16 | 23 nM | CC(=O)N(C(=O)/C=C/c1ccc(F)cc1)[C@@H](Cc1ccc(F)cc1)C(=O)N[C@@H](Cc1ccc(NC(=N)N)cc1)C(=O)N[C@@H](CC(C)C)C(=O)N[C@@H](CCCN=C(N)N)C(N)=O (stereo in doubt; 62)
17 | 7550 nM | CC(=O)N(C(=O)/C=C/c1ccccc1)[C@@H](Cc1ccc(F)cc1)C(=O)N[C@@H](Cc1ccc([N+](=O)[O-])cc1)C(=O)N[C@@H](CC(C)C)C(=O)N[C@@H](CCCN=C(N)N)C(N)=O
18 | 42 nM | CC(=O)N(C(=O)/C=C/c1ccccc1)[C@@H](Cc1cccs1)C(=O)N[C@@H](Cc1ccc(NC(=N)N)cc1)C(=O)N[C@@H](CC(C)C)C(=O)N[C@@H](CCCN=C(N)N)C(N)=O
19 | 220 nM | CC(=O)N(Oc1cccs1)[C@@H](Cc1ccc(F)cc1)C(=O)N[C@@H](Cc1ccc(NC(=N)N)cc1)C(=O)N[C@@H](CC(C)C)C(=O)N[C@@H](CCCN=C(N)N)C(N)=O
20 | 260 nM | CC(=O)N(c1cccs1)[C@@H](Cc1ccc(F)cc1)C(=O)N[C@@H](Cc1ccc(NC(=N)N)cc1)C(=O)N[C@@H](CC(C)C)C(=O)N[C@@H](CCCN=C(N)N)C(N)=O
21 | 34 nM | CC(=O)N(C(=O)/C=C/c1ccc(C)cc1)[C@@H](Cc1ccc(F)cc1)C(=O)N[C@@H](Cc1ccc(NC(=N)N)cc1)C(=O)N[C@@H](CC(C)C)C(=O)N[C@@H](CCCN=C(N)N)C(N)=O (stereo in doubt; 45)
22 | 24 nM | CC(=O)N(C(=O)/C=C/c1ccccc1)[C@@H](Cc1ccccc1)C(=O)N[C@@H](Cc1ccc(NC(=N)N)cc1)C(=O)N[C@@H](CC(C)C)C(=O)N[C@@H](CCCN=C(N)N)C(N)=O

The remaining lines, values behind:

Row | SMILES | IC50
23 | CC(C)C[C@H](NC(=O)[C@H](Cc1ccc(NC(=N)N)cc1)NC(=O)[C@H](Cc1ccc(F)cc1)NC(=O)c1c[nH]c2ccccc12)C(=O)N[C@@H](CCCN=C(N)N)C(N)=O (X10-[Phe(4-F)][Phe(4-guanidino)]LR-NH2) | 19 nM
24 | CCCCC/C=C/CC(=O)N(C(C)=O)[C@@H](Cc1ccc(F)cc1)C(=O)N[C@@H](Cc1ccc(NC(=N)N)cc1)C(=O)N[C@@H](CC(C)C)C(=O)N[C@@H](CCCN=C(N)N)C(N)=O | 35 nM
25 | CC(=O)N(C(=O)/C=C/c1ccccc1)[C@@H](Cc1ccc(F)cc1)C(=O)N[C@@H](CCN=C(N)N)C(=O)N[C@@H](CC(C)C)C(=O)N[C@@H](CCCN=C(N)N)C(N)=O | 28 nM
26 | CC(=O)N(C(=O)/C=C/c1ccccc1)[C@@H](Cc1ccc(F)cc1)C(=O)N[C@@H](CCCN=C(N(C)C)N(C)C)C(=O)N[C@@H](CC(C)C)C(=O)N[C@@H](CCCN=C(N)N)C(N)=O | 320 nM
27 | CC(C)C[C@H](NC(=O)[C@H](Cc1ccc(NC(=N)N)cc1)NC(=O)[C@H](Cc1ccc(F)cc1)NS(=O)(=O)c1cccs1)C(=O)N[C@@H](CCCN=C(N)N)C(N)=O (X2-[Phe(4-F)][Phe(4-guanidino)]LR-NH2) | 8950 nM
28 | CC(=O)N(C1CCCC1)[C@@H](Cc1ccc(F)cc1)C(=O)N[C@@H](Cc1ccc(NC(=N)N)cc1)C(=O)N[C@@H](CC(C)C)C(=O)N[C@@H](CCCN=C(N)N)C(N)=O | 370 nM
29 | CCC(=O)c1cccc(N(C(C)=O)[C@@H](Cc2ccc(F)cc2)C(=O)N[C@@H](Cc2ccc(NC(=N)N)cc2)C(=O)N[C@@H](CC(C)C)C(=O)N[C@@H](CCCN=C(N)N)C(=O)N[C@@H](CCCN=C(N)N)C(N)=O)c1 (Ac-[X9][Phe(4-guanidino)]LRR-NH2) | 9 nM
30 | CC(C)C[C@H](NC(=O)[C@H](Cc1ccc(NC(=N)N)cc1)NC(=O)[C@H](Cc1ccc(F)cc1)NC(=O)c1cc2ccccc2[nH]1)C(=O)N[C@@H](CCCN=C(N)N)C(N)=O (X5-[Phe(4-F)][Phe(4-guanidino)]LR-NH2) | 24 nM
31 | CC(=O)N(C(=O)/C=C/c1ccccc1)[C@@H](Cc1ccc(F)cc1)C(=O)N[C@@H](Cc1ccccc1)C(=O)N[C@@H](CC(C)C)C(=O)N[C@@H](CCCN=C(N)N)C(N)=O | 1120 nM
32 | CC(=O)N(c1c[nH]c2ccccc12)[C@@H](Cc1ccc(F)cc1)C(=O)N[C@@H](Cc1ccc(NC(=N)N)cc1)C(=O)N[C@@H](CC(C)C)C(=O)N[C@@H](CCCN=C(N)N)C(N)=O | 500 nM
33 | CC(=O)N(C(=O)/C=C/c1ccccc1)[C@@H](Cc1ccc(F)cc1)C(=O)N[C@@H](CCCN=C(N)N)C(=O)N[C@@H](CC(C)C)C(=O)N[C@@H](CCCN=C(N)N)C(N)=O | 28 nM
34 | CC(=O)N(C(=O)/C=C/c1ccccc1)[C@@H](Cc1ccc(F)cc1)C(=O)N[C@@H](Cc1ccc(NC(=N)N)cc1)C(=O)N[C@@H](CC(C)C)C(N)=O | 110 nM
35 | CC(C)C[C@H](NC(=O)[C@H](Cc1ccc(NC(=N)N)cc1)NC(=O)[C@H](Cc1ccc(F)cc1)NC(=O)c1ccc(Cl)cc1)C(=O)N[C@@H](CCCN=C(N)N)C(N)=O ({Benzoyl(4-Cl)}-[Phe(4-F)][Phe(4-guanidino)]LR-NH2) | 26 nM
36 | CC(=O)N(C(=O)/C=C/c1ccccc1)[C@@H](Cc1ccc(F)cc1)C(=O)N[C@@H](Cc1ccc(NC(=N)N)cc1)C(=O)N[C@@H](CC(C)C)C(=O)N[C@@H](CCCN=C(N)N)C(=O)N[C@@H](CCCN)C(=O)CCC(N)=O | 21.9 nM
37 | CC(=O)N(C(=O)/C=C/c1ccccc1)[C@@H](Cc1ccc(F)cc1)C(=O)N[C@@H](CCc1ccccc1)C(=O)N[C@@H](CC(C)C)C(=O)N[C@@H](CCCN=C(N)N)C(N)=O | 630 nM
38 | CC(=O)N(C(=O)/C=C/c1ccccc1)[C@@H](Cc1ccc(F)cc1)C(=O)N[C@@H](Cc1ccc(NC(=N)N)cc1)C(=O)N[C@@H](CCCN)C(N)=O | 870 nM
39 | CC(=O)N(Oc1c[nH]c2ccccc12)[C@@H](Cc1ccc(F)cc1)C(=O)N[C@@H](Cc1ccc(NC(=N)N)cc1)C(=O)N[C@@H](CC(C)C)C(=O)N[C@@H](CCCN=C(N)N)C(N)=O | 130 nM
40 | CC(=O)N(C(=O)/C=C/c1ccccc1)[C@@H](Cc1ccc(F)cc1)C(=O)N[C@@H](Cc1c[nH]cn1)C(=O)N[C@@H](CC(C)C)C(=O)N[C@@H](CCCN=C(N)N)C(N)=O | 470 nM
41 | CC(=O)N(C(=O)/C=C/c1ccccc1)[C@@H](Cc1ccc(F)cc1)C(=O)N[C@@H](Cc1ccc(NC(=N)N)cc1)C(=O)N[C@@H](CC(C)C)C(=O)N[C@@H](CCCN=C(N)N)C(=O)N[C@@H](CCCN)C(=O)CC(N)=O | 16.6 nM
42 | CC(=O)N(C(=O)/C=C/c1ccccc1)[C@@H](Cc1ccc(F)cc1)C(=O)N[C@@H](CCCCN=C(N)N)C(=O)N[C@@H](CC(C)C)C(=O)N[C@@H](CCCN=C(N)N)C(N)=O | 12 nM

Source: ChEMBL document CHEMBL1129588, “Development of potent thrombin receptor antagonist peptides” (J Med Chem, 1996)
